Reference: PMC10536928, “Discovery of New Pyrrolo[2,3-d]pyrimidine Derivatives as Potential Multi-Targeted Kinase Inhibitors and Apoptosis Inducers” (Pharmaceuticals, 2023)

What was measured:
[1] = test system: four different cancer cell lines (MCF-7, HepG2, MDA-MB-231, HeLa); test: MTT cytotoxicity assay, range over the four cell lines; format: cell-based; settings: read-out: IC50 values, range over the tested cancer cell lines
Experimental: (§1) The cytotoxic effects of compounds 5a–m were evaluated using a standard MTT method against four different cancer cell lines, namely mammary gland cancer (MCF-7), hepatocellular carcinoma (HepG2), breast cancer (MDA-MB-231), and epithelioid cervix carcinoma (HeLa). […] These findings highlight the potential of these compounds as candidates for further development as cytotoxic agents for cancer treatment.
(§2) The cytotoxicity of compounds 5a–m was assessed against various cancer cell lines and one normal cell line using the described methodology. In brief, the cells were cultured in 96-well plates with a density of 1.0 × 10^4 cells per well, supplemented with 10% fetal bovine serum (FBS), an antibiotic cocktail, and RPMI 11,640 medium. The cells were then incubated for 48 h with 5% CO2 and 100% relative humidity at 37 °C. […] Following treatment, the addition of 20 µL of MTT solution was added to each well and incubation was continued for another 4 h, after which dimethyl sulfoxide (100 µL) was used to dissolve the resulting insoluble formazan. The absorbance was measured at 570 nm using a BioTek EXL 800 plate reader (Agilent Technologies, CA, USA). By comparing the absorbance of treated samples to untreated samples, the relative cell viability percentage was calculated as (A570 of treated samples/A570 of untreated sample) × 100. The IC50 values were determined based on triplicate measurements.

[2] = test system: breast cancer (MDA-MB-231); test: MTT cytotoxicity assay; format: cell-based; settings: Homo sapiens, 24 h exposure, mean ± SD of triplicate
Experimental: as §1, §2

[3] = test system: hepatocellular carcinoma (HepG2); test: MTT cytotoxicity assay; format: cell-based; settings: Homo sapiens, 24 h exposure, mean ± SD of triplicate
Experimental: as §1, §2

[4] = test system: mammary gland cancer (MCF-7); test: MTT cytotoxicity assay; format: cell-based; settings: Homo sapiens, MCF7, 24 h, 24 h exposure, mean ± SD of triplicate
Experimental: as §1, §2

[5] = test system: epithelioid cervix carcinoma (HeLa); test: MTT cytotoxicity assay; format: cell-based; settings: Homo sapiens, 24 h exposure, mean ± SD of triplicate
[6] = molecular target: T1, CDK2 (Homo sapiens, UniProt P24941); test: In vitro protein kinase inhibition assay (ELISA kit); format: biochemical; settings: triplicate
T1 construct: purchased
Experimental: (§3) In accordance with the documented procedures, fifteen derivatives of the synthesized compounds were evaluated for their inhibitory effects on EGFR, VEGFR-2, Her2, and CDK2 using specific human ELISA kits (Enzyme-Linked Immunosorbent Assay) designed for each respective kinase enzyme. Initially, various concentrations of the synthesized compounds were combined with specific antibodies for each enzyme in individual wells of a 96-well plate, followed by incubation at room temperature for 2.5 h. Subsequently, the plate was washed, and a biotin antibody (100 µL), prepared in-house, was added and allowed to incubate at ambient temperature for 1 h. After another washing step, a solution of streptavidin (100 µL) was introduced to each well and left for 45 min at room temperature. Following a third round of washing, a TMB Substrate (100 µL) reagent was applied to all wells and incubated for 30 min at room temperature. Finally, the reaction was terminated by adding 50 µL of a stop solution, and the absorbance was directly measured at 450 nm. A standard curve was constructed, illustrating the relationship between concentration (X-axis) and absorbance (Y-axis).

[7] = molecular target: T2, Her2 (Homo sapiens, UniProt P04626); test: as above; format: biochemical; settings: triplicate
T2 construct: purchased
T2 sequence (P04626 23-1255): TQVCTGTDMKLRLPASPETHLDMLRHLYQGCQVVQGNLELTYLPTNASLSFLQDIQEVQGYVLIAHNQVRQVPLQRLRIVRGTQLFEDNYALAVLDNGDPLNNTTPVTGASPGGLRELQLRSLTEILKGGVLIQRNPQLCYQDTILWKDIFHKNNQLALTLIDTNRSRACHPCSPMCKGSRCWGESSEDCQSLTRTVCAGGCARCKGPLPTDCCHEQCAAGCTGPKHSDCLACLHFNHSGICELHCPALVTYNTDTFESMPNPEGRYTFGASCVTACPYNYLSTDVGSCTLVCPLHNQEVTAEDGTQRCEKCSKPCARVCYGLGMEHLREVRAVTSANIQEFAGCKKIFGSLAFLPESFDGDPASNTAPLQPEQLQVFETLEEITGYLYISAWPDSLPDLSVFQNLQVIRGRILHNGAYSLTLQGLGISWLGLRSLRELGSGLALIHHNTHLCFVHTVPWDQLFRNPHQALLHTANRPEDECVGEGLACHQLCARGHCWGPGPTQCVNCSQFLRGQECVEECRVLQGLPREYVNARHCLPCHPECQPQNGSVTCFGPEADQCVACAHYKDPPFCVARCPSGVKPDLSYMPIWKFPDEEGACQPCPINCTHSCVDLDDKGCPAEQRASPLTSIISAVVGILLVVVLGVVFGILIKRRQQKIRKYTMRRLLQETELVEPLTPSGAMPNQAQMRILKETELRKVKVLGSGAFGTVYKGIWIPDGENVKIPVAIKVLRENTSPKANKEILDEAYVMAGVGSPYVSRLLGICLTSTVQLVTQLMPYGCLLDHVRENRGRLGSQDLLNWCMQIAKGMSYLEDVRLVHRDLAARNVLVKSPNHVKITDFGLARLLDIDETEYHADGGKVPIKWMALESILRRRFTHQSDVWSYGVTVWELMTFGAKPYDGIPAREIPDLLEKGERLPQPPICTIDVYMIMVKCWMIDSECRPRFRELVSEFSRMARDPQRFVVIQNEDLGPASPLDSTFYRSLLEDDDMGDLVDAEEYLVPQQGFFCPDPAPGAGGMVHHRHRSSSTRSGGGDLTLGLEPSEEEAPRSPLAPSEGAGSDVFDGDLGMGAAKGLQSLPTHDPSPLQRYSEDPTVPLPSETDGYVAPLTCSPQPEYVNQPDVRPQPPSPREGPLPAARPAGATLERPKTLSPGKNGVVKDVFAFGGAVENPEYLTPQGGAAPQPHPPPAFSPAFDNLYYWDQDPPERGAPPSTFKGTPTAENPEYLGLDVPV
Experimental: as §3

[8] = molecular target: T3, EGFR (Homo sapiens, UniProt P00533); test: as above; format: biochemical; settings: triplicate
T3 construct: purchased
T3 sequence (P00533 25-1210): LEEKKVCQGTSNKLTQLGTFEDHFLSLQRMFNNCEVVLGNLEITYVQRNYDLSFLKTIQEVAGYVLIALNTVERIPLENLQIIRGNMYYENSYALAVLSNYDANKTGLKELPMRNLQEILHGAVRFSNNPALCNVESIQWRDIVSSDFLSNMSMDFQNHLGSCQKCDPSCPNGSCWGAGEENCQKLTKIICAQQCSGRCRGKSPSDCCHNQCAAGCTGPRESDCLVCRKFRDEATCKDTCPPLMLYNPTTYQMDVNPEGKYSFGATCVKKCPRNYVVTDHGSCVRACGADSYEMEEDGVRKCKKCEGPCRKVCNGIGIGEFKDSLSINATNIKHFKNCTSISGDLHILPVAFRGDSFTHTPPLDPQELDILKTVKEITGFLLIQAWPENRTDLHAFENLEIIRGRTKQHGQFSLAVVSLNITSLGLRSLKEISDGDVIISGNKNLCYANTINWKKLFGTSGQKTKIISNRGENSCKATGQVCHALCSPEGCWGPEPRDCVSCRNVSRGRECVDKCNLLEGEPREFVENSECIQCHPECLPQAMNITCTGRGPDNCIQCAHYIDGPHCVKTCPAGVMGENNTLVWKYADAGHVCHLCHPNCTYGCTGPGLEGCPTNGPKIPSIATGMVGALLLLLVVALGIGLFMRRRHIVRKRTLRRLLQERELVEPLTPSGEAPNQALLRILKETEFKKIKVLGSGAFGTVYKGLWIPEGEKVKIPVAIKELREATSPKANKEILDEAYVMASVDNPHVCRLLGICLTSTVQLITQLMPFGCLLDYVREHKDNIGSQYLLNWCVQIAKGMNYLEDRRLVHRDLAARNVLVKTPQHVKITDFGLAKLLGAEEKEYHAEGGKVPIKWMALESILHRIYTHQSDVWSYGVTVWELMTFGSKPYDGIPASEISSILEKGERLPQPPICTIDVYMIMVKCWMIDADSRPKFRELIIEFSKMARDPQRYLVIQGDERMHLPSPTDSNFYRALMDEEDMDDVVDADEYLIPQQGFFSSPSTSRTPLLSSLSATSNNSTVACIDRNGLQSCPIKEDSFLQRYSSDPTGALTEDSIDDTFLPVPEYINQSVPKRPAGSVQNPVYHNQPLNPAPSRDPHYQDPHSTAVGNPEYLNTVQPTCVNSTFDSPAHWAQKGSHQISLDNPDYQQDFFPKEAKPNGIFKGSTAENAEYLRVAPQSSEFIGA
Experimental: as §3

[9] = molecular target: T4, VEGFR2 (Homo sapiens, UniProt P35968); test: as above; format: biochemical; settings: triplicate
T4 construct: purchased
T4 sequence (P35968 20-1356): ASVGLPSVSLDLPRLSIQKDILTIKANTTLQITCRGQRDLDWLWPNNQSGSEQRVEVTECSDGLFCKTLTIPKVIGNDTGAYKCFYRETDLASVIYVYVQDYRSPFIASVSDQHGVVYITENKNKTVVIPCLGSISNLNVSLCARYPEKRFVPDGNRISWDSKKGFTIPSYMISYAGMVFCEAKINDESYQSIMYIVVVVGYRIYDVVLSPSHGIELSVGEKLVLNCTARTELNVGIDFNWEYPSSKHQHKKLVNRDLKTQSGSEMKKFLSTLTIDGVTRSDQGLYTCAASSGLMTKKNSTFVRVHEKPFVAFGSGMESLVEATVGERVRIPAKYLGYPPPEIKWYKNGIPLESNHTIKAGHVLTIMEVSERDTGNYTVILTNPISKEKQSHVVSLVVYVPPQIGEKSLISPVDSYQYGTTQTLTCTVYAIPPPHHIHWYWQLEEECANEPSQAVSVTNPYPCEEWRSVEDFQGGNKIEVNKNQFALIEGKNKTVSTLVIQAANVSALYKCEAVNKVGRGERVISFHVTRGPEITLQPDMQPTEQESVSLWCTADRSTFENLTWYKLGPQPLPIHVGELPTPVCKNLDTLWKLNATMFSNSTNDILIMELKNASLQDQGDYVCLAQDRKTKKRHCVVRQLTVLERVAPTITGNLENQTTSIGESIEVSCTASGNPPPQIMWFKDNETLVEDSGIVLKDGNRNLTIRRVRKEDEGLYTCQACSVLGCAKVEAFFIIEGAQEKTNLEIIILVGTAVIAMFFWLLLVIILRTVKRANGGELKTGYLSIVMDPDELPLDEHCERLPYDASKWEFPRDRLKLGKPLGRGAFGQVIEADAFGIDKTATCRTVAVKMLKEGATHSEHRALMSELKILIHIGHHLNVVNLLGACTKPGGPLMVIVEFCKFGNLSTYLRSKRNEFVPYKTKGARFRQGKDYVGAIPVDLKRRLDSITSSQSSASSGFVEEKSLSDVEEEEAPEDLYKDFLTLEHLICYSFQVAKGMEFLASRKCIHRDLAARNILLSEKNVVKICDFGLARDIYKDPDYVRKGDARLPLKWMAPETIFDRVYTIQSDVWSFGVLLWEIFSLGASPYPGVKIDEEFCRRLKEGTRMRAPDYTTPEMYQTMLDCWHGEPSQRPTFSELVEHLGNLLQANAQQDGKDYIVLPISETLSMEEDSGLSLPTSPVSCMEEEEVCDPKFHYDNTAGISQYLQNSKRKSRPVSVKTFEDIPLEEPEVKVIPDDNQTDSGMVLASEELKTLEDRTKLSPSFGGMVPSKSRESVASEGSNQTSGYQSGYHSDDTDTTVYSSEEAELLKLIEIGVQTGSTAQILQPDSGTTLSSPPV
Experimental: as §3

[10] = test system: Bcl-2; test: Apoptotic protein levels assay (ELISA) in HepG2 cells; format: cell-based; settings: 24 h, ELISA, control 11.7 ± 0.36
Description: (§4) To validate the mechanism of cell death and the induction of apoptosis caused by compound 5k, the expression levels of some apoptotic proteins were investigated. […] Specifically, the levels of caspase-3 (6.9 folds higher than the control) and Bax (2.6 folds higher than the control) were higher in the group treated with 5k compared to the control group. Caspase-3 is a key enzyme involved in the execution of apoptosis, while Bax is a pro-apoptotic protein that promotes cell death. […] Bcl-2 is a protein that inhibits apoptosis, so the lower levels of Bcl-2 in the 5k treated group further support the notion that treatment with 5k may induce apoptosis in HepG2 cells. […] These findings may have implications for the development of novel therapies for diseases involving abnormal cell death, including cancer. Further studies are warranted in order to elucidate the underlying mechanisms of action of compound 5k and to assess its potential therapeutic applications.
(§5) The ELISA technique was employed to assess the impact of compound 5k on the alteration of protein levels associated with caspase-3, BAX, and Bcl-2. Specifically, the following ELISA kits were utilized: KHO1091 (InvitrogenTM, Grand Island, NY, USA) for caspase-3, EIA-4860 and EIA-4487 for BAX, (DRU International INC., Mountainside, NJ, USA), and 99-0042 (InvitrogenTM, Grand Island, NY, USA) for Bcl-2 for the respective measurements. The experimental procedures were conducted according to the instructions provided by the manufacturers and our recently published article. Initially, HepG2 cells were cultured in triplicate in 96-well plates. Following a 24-h incubation period, the cells were subjected to various concentrations of compound 5k, while a control group was treated with 0.1% DMSO (V/V). After an additional 24-h incubation, the absorbance levels were assessed using a BioTek Synergy H1 Multi-mode Reader (Agilent Technologies, Santa Clara, CA, USA) at wavelengths ranging from 450 to 650 nm.

[11] = test system: caspase-3; test: as above; format: cell-based; settings: 24 h, ELISA, control 66.28 ± 4.66
Description: as §4, §5

[12] = test system: Bax; test: as above; format: cell-based; settings: 24 h, ELISA, control 67.09 ± 4.94
Description: as §4, §5

O=C(N/N=C/c1ccccc1Cl)c1ccc(Nc2ncnc3[nH]ccc23)cc1 [Compound 5e, (E)-4-((7H-Pyrrolo[2,3-d]pyrimidin-4-yl)amino)-N’-(2-chlorobenzylidene)benzohydrazide]
IC50 [1]: 29 to 59 µM | IC50 [2]: 48.1 ± 2.6 µM | IC50 [3]: 29.1 ± 2.5 µM | IC50 [4]: 55.3 ± 3.1 µM | IC50 [5]: 53 ± 2.9 µM | IC50 [6]: 2120 nM | IC50 [7]: 335 nM | IC50 [8]: 1140 nM | IC50 [9]: 593 nM

O=C(N/N=C/c1ccc(Br)cc1)c1ccc(Nc2ncnc3[nH]ccc23)cc1 [Compound 5d, (E)-4-((7H-Pyrrolo[2,3-d]pyrimidin-4-yl)amino)-N’-(4-bromobenzylidene)benzohydrazide]
melting point: 321 °C | IC50 [2]: 81.5 ± 4 µM | IC50 [3]: 62.4 ± 3.5 µM | IC50 [4]: 88.2 ± 4.5 µM | IC50 [5]: 95.8 ± 5.1 µM

O=C(N/N=C/c1cc(Br)ccc1O)c1ccc(Nc2ncnc3[nH]ccc23)cc1 [Compound 5l, (E)-4-((7H-Pyrrolo[2,3-d]pyrimidin-4-yl)amino)-N’-(5-bromo-2-hydroxybenzylidene)benzohydrazide]
IC50 [1]: 29 to 59 µM | IC50 [2]: 41.3 ± 2.4 µM | IC50 [3]: 36.3 ± 2.6 µM | IC50 [4]: 47.1 ± 2.5 µM | IC50 [5]: 46.1 ± 2.4 µM | IC50 [6]: 599 nM | IC50 [7]: 193 nM | IC50 [8]: 406 nM | IC50 [9]: 1200 nM

O=C(N/N=C/c1ccccc1)c1ccc(Nc2ncnc3[nH]ccc23)cc1 [Compound 5a, (E)-4-((7H-Pyrrolo[2,3-d]pyrimidin-4-yl)amino)-N’-benzylidenebenzohydrazide]
melting point: 294 °C | IC50 [1]: 43.1 to 68.2 µM | IC50 [2]: 56.2 ± 3.2 µM | IC50 [3]: 43.1 ± 2.7 µM | IC50 [4]: 64.9 ± 3.6 µM | IC50 [5]: 68.2 ± 3.3 µM

O=C(N/N=C/c1ccc(F)cc1)c1ccc(Nc2ncnc3[nH]ccc23)cc1 [Compound 5j, (E)-4-((7H-Pyrrolo[2,3-d]pyrimidin-4-yl)amino)-N’-(4-fluorobenzylidene)benzohydrazide]
melting point: 309 °C | IC50 [2]: 58.5 ± 3.3 µM | IC50 [3]: 42.6 ± 2.8 µM | IC50 [4]: 66.4 ± 3.6 µM | IC50 [5]: 71.7 ± 3.5 µM

O=C(N/N=C/c1ccccc1F)c1ccc(Nc2ncnc3[nH]ccc23)cc1 [Compound 5h, (E)-4-((7H-Pyrrolo[2,3-d]pyrimidin-4-yl)amino)-N’-(2-fluorobenzylidene)benzohydrazide]
IC50 [1]: 29 to 59 µM | IC50 [2]: 45.2 ± 2.5 µM | IC50 [3]: 33.2 ± 2.4 µM | IC50 [4]: 52.4 ± 2.9 µM | IC50 [5]: 49.9 ± 2.8 µM | IC50 [6]: 1020 nM | IC50 [7]: 206 nM | IC50 [8]: 636 nM | IC50 [9]: 1040 nM

O=C(N/N=C/c1cccc(F)c1)c1ccc(Nc2ncnc3[nH]ccc23)cc1 [Compound 5i, (E)-4-((7H-Pyrrolo[2,3-d]pyrimidin-4-yl)amino)-N’-(3-fluorobenzylidene)benzohydrazide]
melting point: 295 °C | IC50 [2]: 63.8 ± 3.5 µM | IC50 [3]: 45 ± 2.8 µM | IC50 [4]: 69.9 ± 3.8 µM | IC50 [5]: 76.1 ± 3.7 µM

O=C(N/N=C/c1ccccc1Br)c1ccc(Nc2ncnc3[nH]ccc23)cc1 [Compound 5b, (E)-4-((7H-Pyrrolo[2,3-d]pyrimidin-4-yl)amino)-N’-(2-bromobenzylidene)benzohydrazide]
melting point: 294 °C | IC50 [2]: 79.2 ± 4.1 µM | IC50 [3]: 53.2 ± 3.1 µM | IC50 [4]: 83.9 ± 4.3 µM | IC50 [5]: 90.6 ± 4.7 µM

CCN(CC)CCNC(=O)c1c(C)[nH]c(/C=C2\C(=O)Nc3ccc(F)cc32)c1C [Sunitinib, reference compound]
IC50 [5]: 21.8 ± 1.7 µM

O=C(N/N=C/c1cccc(C(F)(F)F)c1)c1ccc(Nc2ncnc3[nH]ccc23)cc1 [Compound 5m, (E)-4-((7H-Pyrrolo[2,3-d]pyrimidin-4-yl)amino)-N’-(3-(trifluoromethyl)benzylidene)benzohydrazide]
melting point: 280 °C | IC50 [2]: 53.7 ± 3 µM | IC50 [3]: 39.8 ± 2.7 µM | IC50 [4]: 61.9 ± 3.3 µM | IC50 [5]: 64.5 ± 3.4 µM

CN[C@@H]1C[C@H]2O[C@@](C)([C@@H]1OC)n1c3ccccc3c3c4c(c5c6ccccc6n2c5c31)C(=O)NC4 [Staurosporine, reference compound]
Protein Expression (Pg/mL) Bcl-2 [10]: 4.404 ± 0.09 pg/mL | Protein Expression (Pg/mL) Caspase-3 [11]: 684.6 ± 13.4 pg/mL | Protein Expression (Pg/mL) Bax [12]: 276.9 ± 2.26 pg/mL

O=C(N/N=C/c1cccc(Cl)c1)c1ccc(Nc2ncnc3[nH]ccc23)cc1 [Compound 5f, (E)-4-((7H-Pyrrolo[2,3-d]pyrimidin-4-yl)amino)-N’-(3-chlorobenzylidene)benzohydrazide]
melting point: 281 °C | IC50 [2]: 86.6 ± 4.6 µM | IC50 [3]: 74.6 ± 3.9 µM | IC50 [4]: 94.7 ± 4.9 µM | IC50 [5]: > 100 µM

O=C(N/N=C/c1ccc(Cl)cc1)c1ccc(Nc2ncnc3[nH]ccc23)cc1 [Compound 5g, (E)-4-((7H-Pyrrolo[2,3-d]pyrimidin-4-yl)amino)-N’-(4-chlorobenzylidene)benzohydrazide]
melting point: 314 °C | IC50 [2]: 67.6 ± 3.7 µM | IC50 [3]: 51.9 ± 3 µM | IC50 [4]: 73.3 ± 3.9 µM | IC50 [5]: 79.7 ± 3.9 µM

O=C(N/N=C/c1cccc(Br)c1)c1ccc(Nc2ncnc3[nH]ccc23)cc1 [Compound 5c, (E)-4-((7H-Pyrrolo[2,3-d]pyrimidin-4-yl)amino)-N’-(3-bromobenzylidene)benzohydrazide]
melting point: 296 °C | IC50 [2]: 75.8 ± 3.9 µM | IC50 [3]: 48.5 ± 2.9 µM | IC50 [4]: 80.7 ± 4 µM | IC50 [5]: 85.5 ± 4.1 µM
